{"source": "patent US9828396B2", "about": "“Alkyne compounds for treatment of complement mediated disorders” (Achillion Pharmaceuticals, Inc., priority 2014, dated 2017)", "data": [{"target": "Human factor D (Homo sapiens (Human), UniProt P00746)", "sequence (P00746 26-253)": "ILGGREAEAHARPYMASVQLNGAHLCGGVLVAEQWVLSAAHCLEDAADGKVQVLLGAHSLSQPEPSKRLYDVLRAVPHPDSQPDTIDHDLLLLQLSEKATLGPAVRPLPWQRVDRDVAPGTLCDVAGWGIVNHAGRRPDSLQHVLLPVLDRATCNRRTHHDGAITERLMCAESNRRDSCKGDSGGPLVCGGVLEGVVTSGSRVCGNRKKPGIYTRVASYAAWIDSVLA", "experiment": "Human Factor D Assay", "type": "biochemical", "details": "Human factor D 80 nM, substrate Z-L-Lys-SBzl, assay of Example 12", "in_short": "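Serum-purified human factor D (80 nM final) was preincubated 5 min at room temperature with compound in 50 mM Tris, 1 M NaCl, pH 7.5. Z-L-Lys-SBzl and DTNB (100 μM each) were added and OD405 followed kinetically over 30 min; IC50 from non-linear regression of percent inhibition.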", "units": {"IC50": "nM"}, "values": [{"smiles": "NC(=O)c1nn(CC(=O)N2[C@@H]3C[C@@H]3C[C@H]2C(=O)Nc2cccc(C3CC3)n2)c2ccc(C#Cc3ncccn3)cc12", "note": "[Compound 54, 1-(2-((1R,3S,5R)-3-(6-cyclopropylpyridin-2-ylcarbamoyl)-2-azabicyclo[3.1.0]hexan-2-yl)-2-oxoethyl)-5-(pyrimidin-2-ylethynyl)-1H-indazole-3-carboxamide]", "IC50": "< 1000"}, {"smiles": "CC(=O)c1cn(CC(=O)N2[C@@H]3C[C@@H]3C[C@H]2C(=O)Nc2cccc(Br)n2)c2ccc(C#Cc3ncccn3)cc12", "note": "[Compound 21, (1R,3S,5R)-2-(2-(3-acetyl-5-(pyrimidin-2-ylethynyl)-1H-indol-1-yl)acetyl)-N-(6-bromopyridin-2-yl)-2-azabicyclo[3.1.0]hexane-3-carboxamide]", "IC50": "< 1000"}, {"smiles": "NC(=O)c1nn(CC(=O)N2[C@@H]3C[C@@H]3C[C@H]2C(=O)Nc2ccn(CC(F)(F)F)n2)c2ccc(C#Cc3ncc(F)cn3)cc12", "note": "[Compound 72, 5-((5-fluoropyrimidin-2-yl)ethynyl)-1-(2-oxo-2-((1R,3S,5R)-3-(1-(2,2,2-trifluoroethyl)-1H-pyrazol-3-ylcarbamoyl)-2-azabicyclo[3.1.0]hexan-2-yl)ethyl)-1H-indazole-3-carboxamide]", "IC50": "< 1000"}, {"smiles": "NC(=O)c1nn(CC(=O)N2C[C@H](F)C[C@H]2C(=O)Nc2cncc(C(F)(F)F)n2)c2ccc(C#Cc3ncc(F)cn3)cc12", "note": "[Compound 70, 1-(2-((2S,4R)-4-fluoro-2-(6-(trifluoromethyl)pyrazin-2-ylcarbamoyl)pyrrolidin-1-yl)-2-oxoethyl)-5-((5-fluoropyrimidin-2-yl)ethynyl)-1H-indazole-3-carboxamide]", "IC50": "< 1000"}, {"smiles": "NC(=O)c1nn(CC(=O)N2C[C@H](F)C[C@H]2C(=O)Nc2cccc(Br)n2)c2ccc(C#Cc3ncccn3)cc12", "note": "[Compound 39, 1-(2-((2S,4R)-2-(6-bromopyridin-2-ylcarbamoyl)-4-fluoropyrrolidin-1-yl)-2-oxoethyl)-5-(pyrimidin-2-ylethynyl)-1H-indazole-3-carboxamide]", "IC50": "< 1000"}, {"smiles": "CC(=O)c1cn(CC(=O)N2C[C@H](F)C[C@H]2C(=O)NCc2cccc(Cl)c2F)c2ccc(C#Cc3ccccc3)cc12", "note": "[Compound 14, (2S,4R)-1-(2-(3-acetyl-5-(phenylethynyl)-1H-indol-1-yl)acetyl)-N-(3-chloro-2-fluorobenzyl)-4-fluoropyrrolidine-2-carboxamide]", "IC50": "< 1000"}, {"smiles": "NC(=O)c1nn(CC(=O)N2[C@@H]3C[C@@H]3C[C@H]2C(=O)Nc2cccc(Br)n2)c2ccc(C#Cc3ccc(F)cn3)cc12", "note": "[Compound 58, 1-(2-((1R,3S,5R)-3-(6-bromopyridin-2-ylcarbamoyl)-2-azabicyclo[3.1.0]hexan-2-yl)-2-oxoethyl)-5-((5-fluoropyridin-2-yl)ethynyl)-1H-indazole-3-carboxamide]", "IC50": "< 1000"}, {"smiles": "NC(=O)c1nn(CC(=O)N2C[C@H](F)C[C@H]2C(=O)Nc2cncc(Br)n2)c2ccc(C#Cc3cnccn3)cc12", "note": "[Compound 89, 1-(2-((2S,4R)-2-(6-bromopyrazin-2-ylcarbamoyl)-4-fluoropyrrolidin-1-yl)-2-oxoethyl)-5-(pyrazin-2-ylethynyl)-1H-indazole-3-carboxamide]", "IC50": "< 1000"}, {"smiles": "NC(=O)c1nn(CC(=O)N2[C@@H]3CC(F)(F)[C@@H]3C[C@H]2C(=O)NCc2cccc(Cl)c2F)c2ccc(C#Cc3ncccn3)cc12", "note": "[Compound 51, 1-(2-((1R,3S,5R)-3-(3-chloro-2-fluorobenzylcarbamoyl)-6,6-difluoro-2-azabicyclo[3.2.0]heptan-2-yl)-2-oxoethyl)-5-(pyrimidin-2-ylethynyl)-1H-indazole-3-carboxamide]", "IC50": "1000 to 10000"}, {"smiles": "NC(=O)c1nn(CC(=O)N2C[C@H](F)C[C@H]2C(=O)Nc2cccc(-c3cncnc3)c2F)c2ccc(C#Cc3ncccn3)cc12", "note": "[Compound 69, 1-(2-((2S,4R)-4-fluoro-2-(2-fluoro-3-(pyrimidin-5-yl)phenylcarbamoyl)pyrrolidin-1-yl)-2-oxoethyl)-5-(pyrimidin-2-ylethynyl)-1H-indazole-3-carboxamide]", "IC50": "< 1000"}, {"smiles": "CC(=O)c1cn(CC(=O)N2C[C@H](F)C[C@H]2C(=O)NCc2cccc(Cl)c2F)c2cc(C#Cc3c[nH]c(=O)nc3N)ccc12", "note": "[Compound 5, (2S,4R)-1-(2-(3-acetyl-6-((4-amino-2-oxo-1,2-dihydropyrimidin-5-yl)ethynyl)-1H-indol-1-yl)acetyl)-N-(3-chloro-2-fluorobenzyl)-4-fluoropyrrolidine-2-carboxamide]", "IC50": "< 1000"}, {"smiles": "NC(=O)c1nn(CC(=O)N2C[C@H](F)C[C@H]2C(=O)N2CCc3c([nH]c4ccccc34)C2)c2ccc(C#Cc3ncccn3)cc12", "note": "[Compound 31, 1-(2-((2S,4R)-4-fluoro-2-(2,3,4,9-tetrahydro-1H-pyrido[3,4-b]indole-2-carbonyl)pyrrolidin-1-yl)-2-oxoethyl)-5-(pyrimidin-2-ylethynyl)-1H-indazole-3-carboxamide]", "IC50": "> 10000"}, {"smiles": "NC(=O)c1nn(CC(=O)N2C[C@H](F)C[C@H]2C(=O)Nc2cncc(-c3ccccc3Cl)n2)c2ccc(C#Cc3ncc(F)cn3)cc12", "note": "[Compound 85, 1-(2-((2S,4R)-2-(6-(2-chlorophenyl)pyrazin-2-ylcarbamoyl)-4-fluoropyrrolidin-1-yl)-2-oxoethyl)-5-((5-fluoropyrimidin-2-yl)ethynyl)-1H-indazole-3-carboxamide]", "IC50": "< 1000"}, {"smiles": "COc1ncc(C#Cc2ccc3c(c2)c(C(N)=O)nn3CC(=O)N2C[C@H](F)C[C@H]2C(=O)Nc2cccc(Br)n2)cn1", "note": "[Compound 92, 1-(2-((2S,4R)-2-(6-bromopyridin-2-ylcarbamoyl)-4-fluoropyrrolidin-1-yl)-2-oxoethyl)-5-((2-methoxypyrimidin-5-yl)ethynyl)-1H-indazole-3-carboxamide]", "IC50": "< 1000"}, {"smiles": "CC(C)=C(F)CNC(=O)[C@@H]1C[C@@H](F)CN1C(=O)Cn1nc(C(N)=O)c2cc(C#Cc3ncccn3)ccc21", "note": "[Compound 45, 1-(2-((2S,4R)-4-fluoro-2-(2-fluoro-3-methylbut-2-enylcarbamoyl)pyrrolidin-1-yl)-2-oxoethyl)-5-(pyrimidin-2-ylethynyl)-1H-indazole-3-carboxamide]", "IC50": "< 1000"}, {"smiles": "NC(=O)c1nn(CC(=O)N2[C@@H]3C[C@@H]3C[C@H]2C(=O)Nc2cccc(Br)n2)c2ccc(C#Cc3ncc(F)cn3)cc12", "note": "[Compound 43, 1-(2-((1R,3S,5R)-3-(6-bromopyridin-2-ylcarbamoyl)-2-azabicyclo[3.1.0]hexan-2-yl)-2-oxoethyl)-5-((5-fluoropyrimidin-2-yl)ethynyl)-1H-indazole-3-carboxamide]", "IC50": "< 1000"}, {"smiles": "CC(=O)c1cn(CC(=O)N2C[C@H](F)C[C@H]2C(=O)NCc2cccc(Cl)c2F)c2ccc(C#CC(=O)O)cc12", "note": "[Compound 6, 3-(3-acetyl-1-(2-((2S,4R)-2-(3-chloro-2-fluorobenzylcarbamoyl)-4-fluoropyrrolidin-1-yl)-2-oxoethyl)-1H-indol-5-yl)propiolic acid]", "IC50": "< 1000"}, {"smiles": "NC(=O)c1nn(CC(=O)N2[C@@H]3C[C@@H]3C[C@H]2C(=O)Nc2cccc(Br)n2)c2ccc(C#Cc3cc(F)ccn3)cc12", "note": "[Compound 65, 1-(2-((1R,3S,5R)-3-(6-bromopyridin-2-ylcarbamoyl)-2-azabicyclo[3.1.0]hexan-2-yl)-2-oxoethyl)-5-((4-fluoropyridin-2-yl)ethynyl)-1H-indazole-3-carboxamide]", "IC50": "< 1000"}, {"smiles": "NC(=O)c1nn(CC(=O)N2C[C@H](F)C[C@H]2C(=O)Nc2cccc(Cl)n2)c2ccc(C#Cc3ccnnc3)cc12", "note": "[Compound 80, 1-(2-((2S,4R)-2-(6-chloropyridin-2-ylcarbamoyl)-4-fluoropyrrolidin-1-yl)-2-oxoethyl)-5-(pyridazin-4-ylethynyl)-1H-indazole-3-carboxamide]", "IC50": "< 1000"}, {"smiles": "NC(=O)c1nn(CC(=O)N2C[C@H](F)C[C@H]2C(=O)Nc2cccc(Cl)n2)c2ccc(C#Cc3cccnn3)cc12", "note": "[Compound 75, 1-(2-((2S,4R)-2-(6-chloropyridin-2-ylcarbamoyl)-4-fluoropyrrolidin-1-yl)-2-oxoethyl)-5-(pyridazin-3-ylethynyl)-1H-indazole-3-carboxamide]", "IC50": "< 1000"}, {"smiles": "NC(=O)c1nn(CC(=O)N2[C@@H]3C[C@@H]3C[C@H]2C(=O)Nc2cccc(-c3ccccc3Cl)c2F)c2ccc(C#Cc3ncccn3)cc12", "note": "[Compound 27, 1-(2-((1R,3S,5R)-3-(2′ chloro-2-fluorobiphenyl-3-ylcarbamoyl)-2-azabicyclo[3.1.0]hexan-2-yl)-2-oxoethyl)-5-(pyrimidin-2-ylethynyl)-1H-indazole-3-carboxamide]", "IC50": "< 1000"}, {"smiles": "NC(=O)c1nn(CC(=O)N2[C@@H]3C[C@@H]3C[C@H]2C(=O)Nc2cccc(Cl)n2)c2ccc(C#Cc3cccnn3)cc12", "note": "[Compound 77, 1-(2-((1R,3S,5R)-3-(6-chloropyridin-2-ylcarbamoyl)-2-azabicyclo[3.1.0]hexan-2-yl)-2-oxoethyl)-5-(pyridazin-3-ylethynyl)-1H-indazole-3-carboxamide]", "IC50": "< 1000"}, {"smiles": "NC(=O)c1nn(CC(=O)N2C[C@H](F)C[C@H]2C(=O)NCc2cccc(Cl)c2F)c2ccc(C#Cc3cccc(F)n3)cc12", "note": "[Compound 37, 1-(2-((2S,4R)-2-(3-chloro-2-fluorobenzylcarbamoyl)-4-fluoropyrrolidin-1-yl)-2-oxoethyl)-5-((6-fluoropyridin-2-yl)ethynyl)-1H-indazole-3-carboxamide]", "IC50": "< 1000"}, {"smiles": "NC(=O)c1nn(CC(=O)N2C[C@H](F)C[C@H]2C(=O)Nc2nc(Cl)ccc2F)c2ccc(C#Cc3ncc(F)cn3)cc12", "note": "[Compound 81, 1-(2-((2S,4R)-2-(6-chloro-3-fluoropyridin-2-ylcarbamoyl)-4-fluoropyrrolidin-1-yl)-2-oxoethyl)-5-((5-fluoropyrimidin-2-yl)ethynyl)-1H-indazole-3-carboxamide]", "IC50": "< 1000"}, {"smiles": "NC(=O)c1nn(CC(=O)N2C[C@H](F)C[C@H]2C(=O)Nc2cccc(-c3ccccc3Cl)n2)c2ccc(C#Cc3ncccn3)cc12", "note": "[Compound 47, 1-(2-((2S,4R)-2-(6-(2-chlorophenyl)pyridin-2-ylcarbamoyl)-4-fluoropyrrolidin-1-yl)-2-oxoethyl)-5-(pyrimidin-2-ylethynyl)-1H-indazole-3-carboxamide]", "IC50": "< 1000"}]}]}
